{
  "source": "patent US20030008807A1",
  "about": "“Novel signaling pathway for the production of inflammatory pain and neuropathy” (The Regents of the University of California, priority 2001, published 2003)",
  "molecules": {"B1": {"name": "NGF: mouse 2.5 S nerve growth factor, positive control for ERK1/2 phosphorylation (protein, UniProt P01139 122-241, looked up)", "Beta-nerve growth factor": "SSTHPVFHMGEFSVCDSVSVWVGDKTTATDIKGKEVTVLAEVNINNSVFRQYFFETKCRASNPVESGCRGIDSKHWNSYCTTTHTFVKALTTDEKQAAWRFIRIDTACVCVLSRKATRRG", "modifications": "Beta-nerve growth factor", "notes": "mouse 2.5 S nerve growth factor, positive control for ERK1/2 phosphorylation"}},
  "key": {"[1]": {"system": "Taxol-induced hyperalgesia", "assay": "Taxol-induced painful peripheral neuropathy, Randall-Selitto paw-withdrawal test", "assay_type": "in vivo, rat", "details": "male and female rats; normal approximately 110 grams", "source_text": "(§1) The role of Ras-MEK-ERK 1/2 cascade in painful peripheral neuropathy has been evaluated in three rodent models of common clinical conditions in which patients experience painful peripheral neuropathy. The three models are as follows: 1) Taxol® (a major cancer chemotherapy agent)-induced painful peripheral neuropathy (Dina, O. A., et al., (2001) Role of protein kinase C-epsilon and protein kinase A in a model of paclitaxel-induced painful peripheral neuropathy in the rat. Neuroscience 108:507-515); 2) vincristine (another cancer chemotherapy agent)-induced painful peripheral neuropathy (Aley, K. O., et al., (1996) Vincristine hyperalgesia in the rat: a possible modelfor painful vincristine neuropathy in humans. Neuroscience 73:259-265; Tanner, K. D., et al., (1998) Nociceptor hyper-responsiveness during vincristine-induced painful peripheral neuropathy in the rat. J. Neuroscience 18:6480-6491; Tanner, K. D., et al., (1998) Microtubule disorientation and axonal swelling in unmyelinated sensory axons during vincristine-induced painful neuropathy in rat. J. Comp. Neurol., 395:481-492; and, Tanner, K. D., et al., (2002) Altered temporal patterning of afferent activity in a rat model of vincristine-induced peripheral neuropathy (Submitted -Neuroscience).); and, 3) alcohol-induced painful peripheral neuropathy (Dina, O. A., et al., (2000) Key role for the epsilon isoform of protein kinase C in painful alcoholic neuropathy in the rat. J. Neurosci. 20:8614-8619). In all three models, inhibition of MEK by a MEK inhibitor, PD98509, produced either a moderate (Taxol and vincristine) or profound (alcohol) reversal of the painful peripheral neuropathy. In the third model, alcohol-induced painful peripheral neuropathy, a second inhibitor of the Ras-MEK-ERK 1/2 cascade, which was MEK inhibitor U0126, was also employed.\nThe pain threshold in normal male and female rats was approximately 110 grams, using the Randall-Selitto paw-withdrawal test (plotted as absolute change in nociceptive threshold). Following administration of Taxol, the threshold fell to approximately 70 grams."}, "[2]": {"system": "mechanical nociceptive threshold", "assay": "Epinephrine-induced hyperalgesia in gonad-intact and gonadectomized male and female rats (Example 2)", "details": "inhibitor 1 μg, epinephrine 100 ng intradermal", "method": "The nociceptive flexion reflex was quantified using the Randall-Selitto paw pressure device (Analgesymeter, Stoetling, Chicago, Ill., USA), which applies a linearly increasing mechanical force to the dorsum of the rat's hind paw. The mechanical nociceptive threshold was defined as the force in grams at which the rat withdrew its paw. […] Baseline paw-withdrawal threshold was defined as the mean of six readings before test agents were injected. […] Each group of rats was treated with only one agonist and/or antagonist injected peripherally by the intradermal route. […] All behavioural testing was done between 10.00 and 16.00 h. […] The protein kinase inhibitor was separated from the distilled water by drawing up a small air bubble (<1 μL) into the syringe after drawing up the protein kinase inhibitor but before drawing up the distilled water.\nA stock solution of PGE2 (4 mg/mL) was made by dissolving it in 10% ethanol in normal saline; further dilution to 100 ng was made by addition of saline. Final concentration of ethanol was <10%. […] Stock solutions (1 μg/μL) of inhibitors were stored at −20° C. […] Inhibitors were injected at a concentration of 1 μg/2.5 μL."}, "[3]": {"system": "mechanical nociceptive threshold", "details": "rat, in vivo; cited from earlier work"}, "[4]": {"system": "mechanical nociceptive threshold", "assay": "Prostaglandin E2-induced hyperalgesia in male and female rats (Example 2)", "assay_type": "in vivo, rat", "source_text": "The nociceptive flexion reflex was quantified using the Randall-Selitto paw pressure device (Analgesymeter, Stoetling, Chicago, Ill., USA), which applies a linearly increasing mechanical force to the dorsum of the rat's hind paw. The mechanical nociceptive threshold was defined as the force in grams at which the rat withdrew its paw. The protocols for this procedure have been previously described (Taiwo et al., (1989) The contribution of training to sensitivity in the nociceptive paw-withdrawal test. Brain Res., 487:148-151). Rats were familiarized in the testing procedure, at 5-min intervals for a period of 1 h per day for 3 days in the week preceding the experiment, to decrease variance in nociceptive thresholds (Taiwo et al., (1989), supra). Baseline paw-withdrawal threshold was defined as the mean of six readings before test agents were injected. Each paw was treated as an independent measure (Taiwo et al., (1989), supra) and each experiment was performed on a separate group of rats. Each group of rats was treated with only one agonist and/or antagonist injected peripherally by the intradermal route. It has been shown in previous studies that these agents, which are injected using the protocol described, exert a peripheral rather than central action (Khasar et al., (1995), supra; and, Khasar et al., (1999b), supra). The dose-response relationship for the effect of epinephrine was determined over a dose range of 1 ng-1 μg. All behavioural testing was done between 10.00 and 16.00 h. The blocking agents, with and without epinephrine (Khasar et al., (1999b), supra) or prostaglandin E2 (PGE2) (Aley et al., (1998), supra; Aley & Levine, (1999), supra; and, Aley et al., (2000) Chronic hypersensitivity for inflammatory nociceptor sensitization mediated by the epsilon isozyme of protein kinase C. J. Neurosci., 20:4680-4685), were injected as described previously (Khasar et al., (1995), supra; and, Khasar et al., (1999b), supra). […]"}, "[5]": {"system": "mechanical nociceptive threshold", "assay": "Epinephrine-induced mechanical hyperalgesia, Randall-Selitto paw-withdrawal test (Example 1)", "details": "intradermal, inhibitor 1 μg plus epinephrine 100 ng, male rats", "from_the_text": "The nociceptive flexion reflex (Randall-Selitto paw-withdrawal test) was quantified with a Basile Analge-symeter (Stoelting, Chicago, Ill.), which applies a linearly increasing mechanical force to the dorsum of the rat's hindpaw. The mechanical nociceptive threshold was defined as the force in grams at which the rat withdrew its paw. […] They were allowed to crawl into individual cylindrical Perspex blocks and were lightly restrained there by closing both ends of the cylinder. […] The rats were allowed to acclimatize to the restrainer for 5-10 min, after which the hindpaws were exposed to the test stimulus. Three readings were taken at 5 min intervals, and their mean was considered the baseline threshold. After each drug administration, mechanical paw-withdrawal thresholds were determined again as the mean of three readings taken 20, 25, and 30 min after injection.\nInhibitors were diluted with distilled water before intra-dermal injections into the paw using a 10 μl microsyringe (Hamilton, Reno, Nev.). Injections of peptides (1 μg/2.5 μl) were always preceded by injection of distilled water (2.5 μl) to produce hypo-osmotic shock. […] Paw-withdrawal thresholds were measured again 10, 15, and 20 min after injecting the test agent. The mean of the paw-withdrawal thresholds obtained at these three times was then taken as the mechanical nociceptive threshold at the dose of the test agent used. The effect of each dose a test agent was calculated as the percentage change from baseline."}, "[6]": {"system": "alcohol-induced hyperalgesia", "assay": "Alcohol-induced painful peripheral neuropathy, Randall-Selitto paw-withdrawal test", "assay_type": "in vivo, rat", "source_text": "as §1\nThe pain threshold in normal rats was approximately 110 grams, using the Randall-Selitto paw-withdrawal threshold test (plotted as percentage change in nociceptive threshold). Following chronic consumption of a diet in which alcohol replaced calories, but not other nutrients, in the normal diet, the threshold fell to approximately 70 grams. […] See FIG. 13A, which illustrates results from female rats and FIG. 13B, which illustrates results from male rats."}, "ERK1/2": {"system": "ERK1/2", "assay": "Epinephrine-stimulated ERK1/2 phosphorylation in cultured rat DRG neurons (Western analysis)", "assay_type": "cell-based", "details": "for effect on epinephrine-induced ERK phosphorylation: 1 μM epinephrine 5 min, ICI 118,551 100 nM, U0126 10 μM, H89 1 μM, calphostin C 1 μM", "method": "Trypsin was inactivated by adding 100 μg/ml soybean trypsin inhibitor and 2.5 mg/ml MgSO4. The cells were centrifuged at 300×g for 5 min and resuspended culture media containing minimal essential medium (MEM) supplemented with 10% heat-inactivated fetal calf serum, 1×MEM vitamins, and 1000 U/ml each of penicillin and streptomycin. The culture was enriched for neurons by preplating on 100 mm culture dishes pretreated with 0.1 mg/ml poly-DL-ornithine in 15 mM sodium borate buffer. After culture for 15-20 hr, the loosely attached neuronal cells were collected and plated for 3 hr on six-well plates coated with 0.1 mg/ml poly-DL-ornithine and 1 mg/ml laminin.\nAfter drug treatment, cells from neuron-enriched DRG cultures were collected and centrifuged at 300×g for 5 min at 4° C. […] Blots were incubated with anti-phospho-p42/44 MAP kinase antibody (diluted 1:500 in blocking buffer) overnight at 4° C. Blots were rinsed three times in PBS-T and incubated in blocking buffer containing HRP-conjugated goat anti-rabbit IgG (diluted 1:1000; Boehringer Mannheim, Indianapolis, Ind.) for 1 hr at 27° C. Immunoreactive bands were visualized by enhanced chemiluminescence (Amersham Pharmacia Biotech, Piscataway, N.J.). The membranes were then stripped of antibodies by incubation in 200 mM NaOH for 20 min at 27° C. […] After three washes in PBS-T, blots were incubated with HRP-conjugated goat anti-rabbit IgG (diluted 1:1000; Boehringer Mannheim) for 1 hr at 27° C., and immunoreactive bands were visualized by enhanced chemiluminescence and autoradiography. […] Data were normalized by dividing values obtained for phospho-ERK1 and phospho-ERK2 immunoreactivity by the value obtained for total ERK1 immunoreactivity for each sample."}, "[7]": {"system": "vincristine-induced hyperalgesia", "assay": "Vincristine-induced painful peripheral neuropathy, Randall-Selitto paw-withdrawal test", "assay_type": "in vivo, rat", "details": "male and female rats; normal approximately 110 grams", "source_text": "as §1\nThe pain threshold in normal male and female rats was approximately 110 grams, using the Randall-Selitto paw-withdrawal test (plotted as absolute change in nociceptive threshold). Following administration of vincristine, the threshold fell to approximately 65 grams."}},
  "note": "“Also recorded” adds a separate entry of the source.",
  "data": [
    {"molecule": "CC(=O)O[C@H]1C(=O)[C@@]2(C)[C@H]([C@H](OC(=O)c3ccccc3)[C@]3(O)C[C@H](OC(=O)[C@H](O)[C@@H](NC(=O)c4ccccc4)c4ccccc4)C(C)=C1C3(C)C)[C@]1(OC(C)=O)CO[C@@H]1C[C@@H]2O", "note": "[Taxol]", "values": [
      {"measurement": "pain threshold following administration of Taxol", "setting": "[1]", "value": "approximately 70 grams"}
    ]},
    {"molecule": "CC(C)NCC(O)COc1cccc2ccccc12", "note": "(stereo not drawn) [propranolol]", "values": [
      {"measurement": "effect on epinephrine-induced hyperalgesia", "setting": "[2]; intact female rats", "value": "inhibited"},
      {"measurement": "effect on epinephrine-induced hyperalgesia", "setting": "[2]; intact male rats", "value": "inhibited"},
      {"measurement": "effect on epinephrine hyperalgesia in the rat (previously demonstrated)", "setting": "[3]", "value": "significantly attenuated"}
    ]},
    {"molecule": "CCCCC[C@H](O)/C=C/[C@H]1[C@H](O)CC(=O)[C@@H]1C/C=C\\CCCC(=O)O", "note": "[prostaglandin E2]", "values": [
      {"measurement": "magnitude of hyperalgesia in intact female rats vs males", "setting": "[4]; PGE2 100 ng", "value": "greater"}
    ]},
    {"molecule": "C=C(C)[C@@H]1CC=C(C(=O)O)CC1", "note": "[perillic acid]", "values": [
      {"measurement": "effect on epinephrine-induced mechanical hyperalgesia", "setting": "[5]", "value": "reduced"}
    ]},
    {"molecule": "Cc1ccc(N(CC2=NCCN2)c2cccc(O)c2)cc1", "note": "[phentolamine]", "values": [
      {"measurement": "effect on epinephrine hyperalgesia in the rat (previously demonstrated)", "setting": "[3]", "value": "not"}
    ]},
    {"molecule": "CCO", "note": "[alcohol]", "values": [
      {"measurement": "threshold following chronic consumption of alcohol diet", "setting": "[6]; female rats (FIG. 13A)", "value": "approximately 70 grams"},
      {"measurement": "threshold following chronic consumption of alcohol diet", "setting": "[6]; male rats (FIG. 13B)", "value": "approximately 70 grams"},
      {"measurement": "pain threshold following chronic consumption of alcohol diet", "setting": "[6]; normal approximately 110 grams", "value": "approximately 70 grams"}
    ]},
    {"molecule": "CNC(=N)NCCC[C@H](N)C(=O)O", "note": "[L-NMA, NG-methyl-L-arginine]", "values": [
      {"measurement": "effect on epinephrine-induced hyperalgesia", "setting": "[2]; gonadectomized female rats", "value": "significantly antagonized"},
      {"measurement": "effect on epinephrine-induced hyperalgesia", "setting": "[2]; gonadectomized male rats", "value": "significantly antagonized"},
      {"measurement": "effect on epinephrine-induced hyperalgesia", "setting": "[2]; intact female rats", "value": "did not have a significant effect"},
      {"measurement": "effect on epinephrine-induced hyperalgesia", "setting": "[2]; intact male rats", "value": "significantly antagonized"},
      {"measurement": "effect on prostaglandin E2-induced hyperalgesia", "setting": "[4]; both sexes, gonad-intact, inhibitor 1 μg, PGE2 100 ng intradermal", "value": "significantly blocked; also recorded: inhibited to a similar degree"}
    ]},
    {"molecule": "pertussis toxin", "values": [
      {"measurement": "effect on epinephrine-induced phosphorylation of ERK1/2", "setting": "ERK1/2; pertussis toxin or 1 μM FTase I for 16 hr, then 1 μM epinephrine", "value": "prevented; also recorded: inhibit"},
      {"measurement": "effect on epinephrine-induced mechanical hyperalgesia", "setting": "[5]", "value": "reduced"}
    ]},
    {"molecule": "O=S(=O)(NCCNCC=Cc1ccc(Br)cc1)c1cccc2cnccc12", "note": "[H89, N-[2-(p-bromocinnamylamino)ethyl]-5-isoquinolinesulfonamide]", "values": [
      {"measurement": "effect on epinephrine-induced ERK phosphorylation", "setting": "ERK1/2", "value": "did not reduce; also recorded: did not block"},
      {"measurement": "effect on epinephrine-induced mechanical hyperalgesia", "setting": "[5]", "value": "did not block"}
    ]},
    {"molecule": "Cc1ccc(OCC(O)C(C)NC(C)C)c2c1CCC2", "note": "(stereo not drawn) [ICI 118,551]", "values": [
      {"measurement": "effect on epinephrine-induced ERK phosphorylation", "setting": "ERK1/2", "value": "inhibited"},
      {"measurement": "effect on basal ERK phosphorylation", "setting": "ERK1/2; unstimulated cultures", "value": "did not inhibit"}
    ]},
    {"molecule": "calphostin C", "values": [
      {"measurement": "effect on epinephrine-induced ERK phosphorylation", "setting": "ERK1/2", "value": "did not reduce"}
    ]},
    {"molecule": "CC[C@]1(O)C[C@H]2CN(CCc3c([nH]c4ccccc34)[C@@](C(=O)OC)(c3cc4c(cc3OC)N(C=O)[C@H]3[C@@](O)(C(=O)OC)[C@H](OC(C)=O)[C@]5(CC)C=CCN6CC[C@]43[C@@H]65)C2)C1", "note": "[vincristine]", "values": [
      {"measurement": "pain threshold following administration of vincristine", "setting": "[7]", "value": "approximately 65 grams"}
    ]},
    {"molecule": "B1", "values": [
      {"measurement": "ERK1/2 phosphorylation (representative Western blot)", "setting": "ERK1/2; epinephrine for indicated times, NGF 50 ng/ml 5 min", "value": "stimulation"}
    ]}
  ]
}
